Common to all, as to assay type: cell-based, human
One assay concerns A549 cells. As to the kind of experiment: Cell cycle analysis, propidium iodide flow cytometry, A549. The conditions noted are these: A549, 25 μM Pt(IV)-4C or 7.5 μM Pt(IV)-5C for 5 hours, analyzed 12 hours post treatment. On the procedure: FIG. 10 is a series of plots from a cell cycle analysis of A549 cells (top) and DU145 cells (bottom) cells treated with Pt(IV)-4C and Pt(IV)-5C. A549 cells were treated for 5 hours with control (left), 25 μM Pt(IV)-4C (center), or 7.5 μM Pt(IV)-5C (right), and analyzed 12 hours post treatment. DU145 cells were treated for 1 hour with control (left), 10 μM Pt(IV)-4C (center), or 2.5 μM Pt(IV)-5C (right), and analyzed 12 hours post treatment. Data are representative of three independent experiments.
Cells (˜50 to 60% confluent in 60 mm dishes) were treated as indicated with the platinum compound. After treatment, the floating cells were collected, and both attached and floating cells were washed 2× with PBS. The cells were resuspended in fresh medium and incubated as indicated. The cells were harvested (both the floating and attached cells were collected), counted, and pelleted. The cells were then washed two times with 5 mL PBS, fixed by resuspending in 0.1 mL of PBS and 1 mL of ice-cold 95% ethanol with gentle vortexing. Fixed cells were stored at 4° C. until analysis. For analysis, fixed cells were washed once with 1-2 mL of PBS and centrifuged at 500×g for 5 minutes. The cell pellet was resuspended in 100 μL of a 1.0% Triton X-100 buffer solution, and 100 μL of a 1.0 mg/mL RNAse solution was added and allowed to stand at room temperature for 10-15 minutes. […]

In assay [1] the test system is cleaved-PARP in DU145 cells. As to the kind of experiment: Flow cytometry of cleaved-PARP, DU145. The note with it: DU145, 10 μM Pt(IV)-4C or 2.5 μM Pt(IV)-5C for 2 hours, analyzed seven hours post treatment. On the procedure: FIG. 12 is a series of histograms indicating Pt(IV)-4C and Pt(IV)-5C-induced cleavage of PARP in A549 cells (top panels) and in DU145 cells (bottom). A549 cells were treated for 5 hours with control (left), 25 μM Pt(IV)-4C (center), or 7.5 μM Pt(IV)-5C (right), and analyzed 12 hours post treatment. DU145 cells were treated for 2 hours with control (left), 10 μM Pt(IV)-4C (center), or 2.5 μM Pt(IV)-5C (right), and analyzed seven hours post treatment. Data are representative of three independent experiments.
(§1) Cells (200,000 to 250,000) were seeded in 60 mm dishes and incubated at 37° C. in a humidified, 5% CO2 atmosphere for 2 days to reach ˜50-60% confluence. The cells were treated with the platinum complexes as indicated, the floating cells were collected, and both attached and floating cells were washed 2× with PBS. The cells were resuspended in fresh medium and incubated as indicated. After incubation, both the floating and attached cells were collected and fixed by incubation in 4% formaldehyde for 10 minutes at room temperature. The fixed cells were pelleted and permeabilized by incubation in 500 μL of ice-cold methanol at 4° C. for 10 minutes. The samples were stored at −20° C. until analysis. For analysis, the cells were pelleted and washed 2× with 1% BSA in PBS. […] After washing 2× with 1% BSA, the cells were resuspended in PBS and analyzed on a Becton Dickinson FACS Calibur. […]

Assay [2] deals with phosphorylated H2AX (γH2AX) in DU145 cells. Put plainly: Flow cytometry of phosphorylated H2AX, DU145. The note with it: DU145, 10 μM Pt(IV)-4C or 2.5 μM Pt(IV)-5C for 2 hours, analyzed 7 hours post treatment. On the procedure:
FIG. 9 is a series of graphs plotting Pt(IV) complex-induced phosphorylation of H2AX in A549 cells (top panels) and DU145 cells (bottom panels). A549 cells were treated with control (left), 25 μM Pt(IV)-4C (center), or 7.5 μM Pt(IV)-5C (right) for 6 hours, and analyzed 12 hours post treatment. DU145 cells were treated for 2 hours with control (left), 10 μM Pt(IV)-4C (center), or 2.5 μM Pt(IV)-5C (right), and analyzed 7 hours post treatment. Data are representative of three independent experiments.
as §1

The source of these data is US10316050B2, “PT (IV) complexes containing 4,4′-disubstituted-2,2′-bipyridyl and their use in cancer therapy” (THE BOARD OF REGENTS OF THE NEVADA SYSTEM OF HIGHER …, priority 2014, dated 2019).

As to `CC(=O)[O][Pt]([Cl])([Cl])[O]C(C)=O.CCCCCOc1ccnc(-c2cc(OCCCCC)ccn2)c1` [Pt(IV)-5C, [Pt(IV)Cl2(OAc)2(4,4′-dipentoxy-2,2′-bipyridine)]], the “effect on the cell cycle / sub-G1 peak” value with A549 cells was “decreased percentage of cells in the G1 phase and a corresponding increase in the sub-G1 peak”. Besides, in assay [1], the “fold increase of cleaved-PARP” value is approximately 2 fold. For the same compound, the “level of phosphorylated H2AX (γH2AX)” value in assay [2] was “increase of γH2AX”.
Turning to “[Pt(IV)Cl2(OAc)2(4,4′-dibutoxy-2,2′-bipyridine)] [Pt(IV)-4C]”, the “effect on the cell cycle / sub-G1 peak” value with A549 cells is “decreased percentage of cells in the G1 phase and a corresponding increase in the sub-G1 peak”. Moreover, in assay [1], the “fold increase of cleaved-PARP” value was approximately 2 fold. In addition, the “level of phosphorylated H2AX (γH2AX)” value in assay [2] is recorded as “increase of γH2AX”.
